The values that follow come from ChEMBL document CHEMBL1143538 (Bioorg Med Chem Lett, 2005).

Each structure is given as a SMILES string.

Format in all cases: cell-based
The target of one experiment is Mu-type opioid receptor (Homo sapiens, UniProt P35372). Nature of the experiment: Binding affinity against Opioid receptor mu 1 expressed in CHO cells using [3H]DAMGO as radioligand.
The target in experiment [1] is Kappa-type opioid receptor (Homo sapiens, UniProt P41145). Description: Binding affinity against Opioid receptor kappa 1 expressed in CHO cells using [3H]U-69593 as radioligand.
Chain of Kappa-type opioid receptor (P41145 whole entry): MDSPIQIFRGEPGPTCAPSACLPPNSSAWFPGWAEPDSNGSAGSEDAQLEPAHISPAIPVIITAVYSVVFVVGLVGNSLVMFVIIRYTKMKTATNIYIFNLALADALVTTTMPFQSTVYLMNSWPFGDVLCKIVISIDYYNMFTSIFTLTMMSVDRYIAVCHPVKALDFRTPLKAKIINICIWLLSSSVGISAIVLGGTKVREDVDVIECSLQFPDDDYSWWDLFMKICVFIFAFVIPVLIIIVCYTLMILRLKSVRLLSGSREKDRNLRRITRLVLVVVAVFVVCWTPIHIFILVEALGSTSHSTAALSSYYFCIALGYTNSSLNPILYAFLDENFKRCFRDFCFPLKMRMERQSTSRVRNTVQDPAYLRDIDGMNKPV
In experiment [2] the target is Delta-type opioid receptor (Homo sapiens, UniProt P41143). Description: Binding affinity against Opioid receptor delta 1 expressed in CHO cells using [3H]Naltrindole as radioligand.
Chain of Delta-type opioid receptor (P41143 whole entry): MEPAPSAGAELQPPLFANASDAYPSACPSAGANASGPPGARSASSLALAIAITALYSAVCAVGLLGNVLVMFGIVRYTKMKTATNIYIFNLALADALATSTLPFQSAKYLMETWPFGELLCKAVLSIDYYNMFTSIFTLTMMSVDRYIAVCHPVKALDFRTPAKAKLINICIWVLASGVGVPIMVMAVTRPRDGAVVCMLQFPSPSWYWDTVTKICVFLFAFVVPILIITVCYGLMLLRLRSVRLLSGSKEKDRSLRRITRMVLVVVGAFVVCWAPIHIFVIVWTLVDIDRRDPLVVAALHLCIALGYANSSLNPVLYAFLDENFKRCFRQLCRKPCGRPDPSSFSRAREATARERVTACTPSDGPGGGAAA

Chain of Mu-type opioid receptor (P35372 whole entry): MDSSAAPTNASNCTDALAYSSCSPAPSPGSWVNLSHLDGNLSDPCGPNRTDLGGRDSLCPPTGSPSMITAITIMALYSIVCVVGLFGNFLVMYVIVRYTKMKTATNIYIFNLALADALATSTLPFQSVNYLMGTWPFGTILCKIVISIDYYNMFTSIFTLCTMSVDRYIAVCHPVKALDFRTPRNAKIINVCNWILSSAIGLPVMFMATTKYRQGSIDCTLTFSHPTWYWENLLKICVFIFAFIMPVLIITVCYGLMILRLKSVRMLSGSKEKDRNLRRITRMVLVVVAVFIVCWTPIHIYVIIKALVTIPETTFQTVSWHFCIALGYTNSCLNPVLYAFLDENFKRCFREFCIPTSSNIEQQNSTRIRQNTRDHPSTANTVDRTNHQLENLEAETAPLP

As to `O=C1CC[C@@]2(O)[C@H]3Cc4ccc(O)c(O)c4[C@@]2(CCN3CC2CC2)C1`, the Ki at Mu-type opioid receptor was found to be 17 nM; in experiment [1] it was 2.2 nM; in experiment [2] it was 130 nM.
With `COc1c(C(N)=O)ccc2c1[C@]13CCN(CC4CC4)[C@H](C2)[C@]1(O)CCC(=O)C3`, the Ki turned out to be 11 nM at Mu-type opioid receptor, 23 nM in experiment [1] and 480 nM in experiment [2].
For `NC(=O)c1ccc2c(c1O)[C@]13CCN(CC4CC4)[C@H](C2)[C@]1(O)CCC(=O)C3` [SAMIDORPHAN], the Ki on Mu-type opioid receptor came out at 0.052 nM; in experiment [1] it was 0.23 nM; in experiment [2] it was 2.6 nM.
Take `NC(=O)c1ccc2c(c1O)[C@]13CCN(CC4CCC4)[C@H](C2)[C@]1(O)CCC(=O)C3`: the Ki stood at 0.27 nM in experiment [1] and 4.2 nM in experiment [2].
On to `NC(=O)c1ccc2c3c1O[C@H]1C(=O)CC[C@@]4(O)[C@@H](C2)N(CC2CC2)CC[C@]314`, for which the Ki was 0.71 nM on Mu-type opioid receptor, 11 nM in experiment [1] and 550 nM in experiment [2].

As usually defined, the Ki is the dissociation constant of the complex between target and ligand, obtained from inhibition or displacement.
